Test results published in patent publication US20110176998A1, “IMAGING AND THERAPY OF VIRUS-ASSOCIATED TUMORS” (THE JOHNS HOPKINS UNIVERSITY, priority 2007, published 2011).

Assays:
[1] = test system: EBV viral DNA copy number; experiment: real-time PCR for EBV viral DNA copy number (viral replication); type: cell-based, Epstein-Barr virus; details: for EBV viral replication (DNA copy number): LCL and SNU719 cells, 1 μM, 48 hours
Protocol: Genomic DNA from treated cells were extracted with the QIAamp DNA mini kit (Qiagen, CA) according to the manufacturer's instructions. PCRs were set up in a volume of 50 μL with a TaqMan PCR core reagent kit (Perkin-Elmer Corp., Branchburg, N.J.). Fluorescent probes were custom synthesized by Perkin-Elmer Applied Biosystems. PCR primers were synthesized by Gibco BRL (Frederick, Md.). Each reaction contained 5 μL of 10× buffer A (4 mM MgCl2), amplification primers (300 nM), fluorescent probe (25 nM), dATP, dCTP, and dGTP (200 μM each), dUTP (400 uM), 1.25 U of AmpliTaq Gold, and 0.5 U of AmpErase uracil N-glycosylase. Extracted genomic DNA was used for amplification. DNA amplification was carried out in a 96-well reaction plate in a Perkin-Elmer Applied Biosystems 7700 sequence detector. Each sample was analyzed in duplicate, and multiple negative water blanks were included in each analysis. A calibration curve was run in parallel and in duplicate with each analysis, with DNA extracted from the EBV-positive cell line Namalwa as a standard.
The EBV genome was quantified by real-time PCR with the ICycler system (Biorad, Hercules, Calif.). Template DNA was extracted with a mini blood DNA Kit (Qiagen, Valencia, Calif.). […]. A calibration curve was run in parallel and in duplicate with each analysis, using DNA extracted from the diploid EBV-positive cell line Namalwa containing two integrated viral genomes per cell as a standard. Amplification data were collected with an MyiQ single color real-time PCR Detector (Biorad) and analyzed with the MyiQ software developed by Biorad.

Zta promoter = type: cell-based, Epstein-Barr virus; details: AGS cells
BZLF1 protein (ZTA) = experiment: Western blot / immunoblot for ZTA (BZLF1 protein) in EBV positive cell lines; type: cell-based, Epstein-Barr virus
Protocol: To detect expression of the EBV-TK or EBV-ZTA, total cell protein was first extracted by treating cells with lysis buffer (0.05 M Tris, pH 7.6, 0.15 M NaCl, 1% triton-X 100, 2 mM EDTA) containing protease inhibitors for 10 minutes at 4° C. The following reagents were added to 1 mL of lysis buffer: 2 μL leupeptin (5 mg/mL), 1 μL 0.2 M Na3VO4, 1 μL NaF, 1 μL aprotinin (10 mg/ml), 1 μL, pepstatin (2 mM), and 10 μL PMSF (100 mM) for 10 minutes at 4° C. Following centrifugation, the supernatant was collected and stored at −80° C. Protein concentration was determined with the BCA Protein Assay Kit (Pierce, Rockford, Ill.) according to the manufacturer's instructions. A 10 μg aliquot of total cellular protein was fractionated on a 7.5% SDS-polyacrylamide gel. Proteins were transferred to PROTRAN nitrocellulose membrane (Schleicher & Schuell, Keene, N.H.). The membranes were blocked with 5% blotting grade non-fat dry milk (Bio-rad, Hercules, Calif.) in PBS with 0.1% TWEEN-20 (PBS-T) at 4° C. overnight. The membranes were then washed with PBS-T twice followed by incubation with 1/1,000-diluted rabbit anti-TK sera from a rabbit immunized with a synthetic EBV-TK peptide ([…]) or anti-ZTA monoclonal antibody (Argene, North Massapequa, N.Y.) at room temperature for 1 hour. After washing, the membranes were incubated with HRP-conjugated goat anti-rabbit IgG antibodies or HRP-conjugated goat anti-mouse IgG antibodies (Amersham Pharmacia Biotech, Piscataway, N.J.) at a 1/5,000 dilution in PBS-T at room temperature for 1 hour. The membranes were washed twice and proteins were detected with ECL Western Blotting Detection reagents (Amersham Pharmacia Biotech). The membranes were exposed to X-OMAT film (Kodak, Rochester, N.Y.) at room temperature.
For lytic induction studies, cells were seeded at 10^6/ml, and treated with test compounds for 48 hours. Control untreated cells were incubated in parallel.
Cells were washed with PBS twice. Total cellular protein was extracted with lysis buffer. Proteins were electrophoresed in polyacrylamide and then transferred onto a PROTRAN nitrocellulose membrane (Schleicher&Schuell, Keene, N.H.). Blots were probed with primary antibody (Ab) overnight at 4° C. HRP-conjugated secondary Ab was added after washing and detected by an enhanced chemiluminescence system (ECL) (Amersham). The following antibodies were used: anti-ZTA (Argene), anti-f3-actin (Sigma), anti-mouse (Sigma).

AGS-BX1 cells = experiment: GFP assay in AGS-BX1 cells; details: 1 μM
[2] = test system: EBV-positive lymphoblastoid cells (LCL); experiment: immunofluorescence assay for BZLF1 protein in LCL cells; type: cell-based, Epstein-Barr virus; details: 1 μM, 48 hours
Protocol: LCL cells were treated with 1 μM Ara-c for 48 hours. The cells were then washed with PBS, resuspended, and plated on polylysine glass slides. Indirect immunofluorescence assays and fluorescence microscopy were performed. The slides were fixed in methanol at −20° C., washed with PBS, then incubated in primary antibody anti-ZTA (1:200) (Argene), washed with PBS, followed by secondary antibody incubation of donkey rhodamine-conjugated IgG (Jackson Pharmaceuticals, west Grove, Pa.). Mounting solution with 4′,6′-diamidino-2-phenylindole (DAPI) (Vector Shield) was used to mark the nucleus of the cell. Slides were then observed and photographed with 40× objectives on a E800 microscope (NIKON) with CCD camera (Princeton Instruments) using Metamorph software (Universial Imaging-Molecular Devices).

EBV-TK = experiment: immunoblot for EBV-TK expression; type: cell-based, Epstein-Barr virus; details: Western blot
Protocol: To detect expression of the EBV-TK or EBV-ZTA, total cell protein was first extracted by treating cells with lysis buffer (0.05 M Tris, pH 7.6, 0.15 M NaCl, 1% triton-X 100, 2 mM EDTA) containing protease inhibitors for 10 minutes at 4° C. The following reagents were added to 1 mL of lysis buffer: 2 μL leupeptin (5 mg/mL), 1 μL 0.2 M Na3VO4, 1 μL NaF, 1 μL aprotinin (10 mg/ml), 1 μL, pepstatin (2 mM), and 10 μL PMSF (100 mM) for 10 minutes at 4° C. Following centrifugation, the supernatant was collected and stored at −80° C. Protein concentration was determined with the BCA Protein Assay Kit (Pierce, Rockford, Ill.) according to the manufacturer's instructions. A 10 μg aliquot of total cellular protein was fractionated on a 7.5% SDS-polyacrylamide gel. Proteins were transferred to PROTRAN nitrocellulose membrane (Schleicher & Schuell, Keene, N.H.). The membranes were blocked with 5% blotting grade non-fat dry milk (Bio-rad, Hercules, Calif.) in PBS with 0.1% TWEEN-20 (PBS-T) at 4° C. overnight. […] The membranes were washed twice and proteins were detected with ECL Western Blotting Detection reagents (Amersham Pharmacia Biotech). […]

COC(=O)Nc1nc2ccc(C(=O)c3ccccc3)cc2[nH]1 [Mebendazole]
increase of EBV viral DNA copy number ([1]; LCL cells and Rael cells, 1 μM for 48 hours): 20 fold | induction of BZLF1 promoter (Zta promoter; 1 μM): induced | ZTA expression (BZLF1 protein (ZTA); LCL cells and AKATA cells): induced | GFP signal (AGS-BX1 cells): induced GFP signal

Nc1ccn([C@@H]2O[C@H](CO)[C@@H](O)[C@@H]2O)c(=O)n1 [Cytarabine]
EBV viral replication (DNA copy number) [1]: did not induce | EBV viral replication (DNA copy number) ([1]; listed as Ara-c): not amplified | Zta promoter luciferase activity (Zta promoter): induced | LCL cells induced into lytic infection [2]: 40% | BZLF1 protein (ZTA) expression (BZLF1 protein (ZTA); AKATA(-BX1), LCL and SNU719 cells, 1 μM, 48 hours): induced | EBV early lytic gene TK expression (EBV-TK): induced
